Measurements: ChEMBL document CHEMBL3507680, “University of Dundee, Gates Library screen for HepG2 cell viability”

Assay: Human HepG2 cell viability assay in 384 well format
Format: toxicity, cell-based
Set-up: dose 125 nL, time 70.5 hour; concentration not given beside the values
Conditions: HepG2 cells, read-out: Inhibition

SMILES | cytotoxicity at 70.5 h [%]
CN(C)C(CNC(=O)c1cc2c([nH]c1=O)CCCC2=O)c1ccsc1 (stereo unspecified) | -2.41
Cc1nc(CC(=O)N2CCCC[C@H](N(C)C)C2)cs1 | -7.83
N#Cc1cccc(C(=O)N2CC(c3nc(-c4ccc[nH]c4=O)no3)C2)c1 | -1.92
CCc1nnc(Nc2cccc(C3CCN(C(=O)CNC)CC3)n2)s1 | 10.1
O=C(CCOCC(F)(F)F)N1CCCC(n2ccnc2)C1 (stereo unspecified) | -6.65
CCOCc1ccc(CNc2cncc(-n3cccn3)n2)cc1 | 8.54
O=C(c1cncc(Br)c1)N1CCC(O)(Cn2ccc3ccncc32)CC1 | -13.2
COc1ccccc1C(=O)Nc1c(F)c(C(=O)NC2CCCC2)nn1C | -7.93
O=C(Cc1ccc(F)cc1)N1CCN(CC(O)C2CC2)CC1 (stereo unspecified) | -1.1
CN(C)C(=O)CN1CCC2(COCc3cnc(N4CCOCC4)nc32)C1 (stereo unspecified) | 19.8
CCOC(=O)c1ccc(S(=O)(=O)NCc2cccnc2N(C)C)cc1 | 34.2
CN(C)C1CCN(C(=O)c2n[nH]c3c2CCN(CC2CCC2)C3)CC1 | 14.2
CC(=O)N1CCc2nnc(C3CCCCN3CC3CCCCC3)n2CC1 (stereo unspecified) | 12.6
CN(Cc1ccc(F)c(F)c1)C(=O)CCc1nc(-c2nnc[nH]2)no1 | -4.47
CCOc1cccc(C(=O)N2CCN(c3nccc(OC)n3)CC2)c1 | 23.4
CN(Cc1ncnn1C)c1ccnc(Cc2ccccc2)n1 | -2.06
COc1ccccc1OC1(C(=O)O)CCN(c2ncccc2F)CC1 | -7.34
CN(C)CCO[C@H]1CN(C(=O)c2cscn2)[C@@H]2COC[C@H]12 | -14.3
CCCNC(=O)CSc1nnc2[nH]c(=O)c3c(n12)CCCC3 | 12.2
c1csc(-c2nc(CNC3CCc4ncnn4C3)co2)c1 (stereo unspecified) | -10
COCCCNC(=O)Nc1ncc(-c2cccc(OC)c2)n1CCOC | -17.4

SMILES | cytotoxicity at 70.5 h [%]
CCCc1cc(C(=O)NCCCn2nnc3ccccc32)no1 | -6.64
Cn1ccc(CN2CCN(CC3CC3)CC2)cc1=O | 21.6
COc1cc2nc(C)n(CC(=O)NCCN(C)C)c(=O)c2cc1OC | -17.2
Cc1ccc(CNC(=O)CCSCc2csc(C)n2)cn1 | -11.2
CC(C)C(=O)NCCNC(=O)C(C)OCC(F)(F)F (stereo unspecified) | -8.9
Cn1cc(CN2CCCC3(CCN(Cc4ccncc4)C3=O)C2)cn1 (stereo unspecified) | -10.1
Cc1ccc(C)c(C(=O)N2CCN(C(=O)Cc3ccccn3)CC2)c1 | -8.87
CCCc1cc(NCc2noc(COC)n2)n2nccc2n1 | -4.21
CS(=O)(=O)CCc1ncnn1-c1ccc(F)c(Cl)c1 | -2.51
CCc1ccc(C(=O)N2CCN(Cc3ccc(F)cc3)CC2)s1 | 4.63
Cc1csc(N2CCCN(C(=O)c3occc3C)CC2)n1 | 1.54
COC(=O)N1CCc2ccccc2C1C(=O)NCc1ccco1 (stereo unspecified) | -10.1
Cc1ccc(CN2CC(C(=O)Nc3ccccc3)C3(CCOCC3)C2)s1 (stereo unspecified) | -13.1
Cc1c(C(=O)NCCC2CN(C)CCO2)n(C)c2c(C)cccc12 (stereo unspecified) | -27
COCCN1CCC(CNC(=O)Nc2ccc(-c3ccccc3)cc2)C1 (stereo unspecified) | 1.85
Cc1cnc2c(c1NCc1cccnc1)c(=O)n(C)c(=O)n2C | -0.599
CCOC(=O)N1CCN(c2nc(NCCO)c3ccccc3n2)CC1 | -9.59
O=C(CCNC(=O)C1CCCC1)NCc1cccnc1-n1cncn1 | -9.48
COCCOc1ccc(-c2noc([C@@H]3CCCN3)n2)cn1 | -0.543
COCCN1CCC2(CC1)CC(c1cccnc1)C(=O)N2C (stereo unspecified) | 1.48
COc1cccc(CCC(=O)N2CCCC(n3cc(C)cn3)C2)c1 (stereo unspecified) | -15.8

SMILES | cytotoxicity at 70.5 h [%]
O=C1CN(c2ccc(CNc3cncc(-n4cccn4)n3)cc2)CCN1 | -0.149
CCC[C@@H]1CN(Cc2ccc(C(F)(F)F)nc2)C[C@H]1NS(C)(=O)=O | 11.1
CSCC[C@@H](CO)NC(=O)c1ccc2nc(NS(C)(=O)=O)sc2c1 | -1
c1cncc(OCC2CC3(CCN(CC4CC4)CC3)CO2)c1 (stereo unspecified) | -10.5
COCCC(=O)Nc1cc(CC(C)(C)C)n[nH]1 | -6.88
O=C(Nc1cccc(Cl)c1)c1nn(C2CCS(=O)(=O)C2)c2c1CCCC2 (stereo unspecified) | 13.9
Cn1nc(CN2CCCC2)c2c1CN(C(=O)c1cccnc1)CC2 | -2.33
CC(C)c1nnc2n1CC(CNC/C=C/c1ccccc1)CC2 (stereo unspecified) | -7.41
Cc1nc(N2CCC(O)(c3ccc(F)cc3)CC2)c2c(C)nn(C)c2n1 | -3.16
c1ccc(CCN2CCN(c3ncnc4[nH]ccc34)CC2)cc1 | -3.03
Cc1ncsc1CCN(C)Cc1cc2n(n1)CCN(Cc1ncc[nH]1)C2 | 47.1
O=C(Cc1cccc(O)c1)N1CCCC(O)(CN2CCCC2)CC1 (stereo unspecified) | -6.1
CC(C)(C)OC(=O)N[C@@H]1C[C@@H](O)CN(C(=O)c2cccc(F)c2)C[C@H]1O | -3.14
OC1(CN2CCOC(Cn3cncn3)C2)CCCCC1 (stereo unspecified) | 2.37
CS(=O)(=O)C1CCN(S(=O)(=O)Cc2cccc(F)c2)CC1 | 0.12
CN(C1CCc2ccccc2C1)S(C)(=O)=O (stereo unspecified) | 0.716
NC(=O)CCNC(=O)C1(N2CCCCC2)Cc2ccccc2C1 | 9.16
CCOc1ccc(CN(CCOC)c2nc(C)nc3oc(C)nc23)cc1 | -12.6
Cc1cccnc1CN1CCN(C(=O)c2cnn(C(C)C)c2)CC1 | 15.6
N#CCC(=O)NCc1nnc2n1CCN(Cc1ccsc1)C2 | 9.84
CN(C)S(=O)(=O)N1C[C@H]2C[C@H](C(=O)NCc3ccccc3)[C@@H](C1)O2 | -12.2

SMILES | cytotoxicity at 70.5 h [%]
COCCCN1CC2(CCN(C(=O)c3ccc(=O)n(C)c3)CC2)CC1=O | -9.99
Cc1nc(-c2ccccc2)cc(C2CCNCC2)n1 | 7.58
CN(C)C(=O)N1CCc2c(nnn2C)C1COCc1ccccc1 (stereo unspecified) | -2.85
Cc1nnc2ccc(N3CCC4(CCOC4)C3)nn12 (stereo unspecified) | -3.17
CC(C)n1ncc2c1NC(=O)CC21C(=O)Nc2c(Cl)cc(Cl)cc21 (stereo unspecified) | -8.73
NC(=O)C1CN(C(=O)Nc2ccccc2N2CCCCCC2)CCO1 (stereo unspecified) | -17.5
Cn1cc(-c2nc(C(=O)N3CCCC3Cn3cccn3)cs2)cn1 (stereo unspecified) | -4.01
CC(C)=CCN1CCN(C(=O)c2snnc2C)[C@H]2CS(=O)(=O)C[C@H]21 | -9.09
COCCNC(=O)c1cc(-c2ccc3c(c2)CCO3)n[nH]1 | 15.5
Cn1nccc1CCC(=O)N1CCCC(c2cnccn2)C1 (stereo unspecified) | 12.9
CCCC1(CO)CCCN(C(=O)CCCn2nc(C)cc2C)C1 (stereo unspecified) | -0.556
CC1CCN(c2ccc3c(-c4ncc(C(=O)O)s4)noc3c2)CC1 | -5.23
Cc1cc(C)n(CC2CCCN2CC(=O)N(C)C)n1 (stereo unspecified) | -11.4
O=C(C1CC1)N1CCC2(CC1)COCCN2Cc1ccc(F)cc1 | 0.119
Fc1ccc(Cn2ncc3c2CN(c2noc(C4CC4)n2)C3)cc1 | -3.43
COc1ccc2cc(C3CN(C(=O)C4CCOCC4)CCO3)ccc2c1 (stereo unspecified) | 1.57
CCc1ccsc1C(=O)N1CCCN(Cc2nccn2CC)CC1 | 5.97
N#Cc1ccccc1CN1CCCC(c2nccn2CC2CC2)C1 (stereo unspecified) | 12.6
